Results reported in paper PMC6934184, “Selective DNA-PKcs inhibition extends the therapeutic index of localized radiotherapy and chemotherapy” (The Journal of Clinical Investigation, 2019).

Molecular target: T1, SGKL (SGK3) (Homo sapiens, UniProt Q96BR1)
T1 construct: purchased Thermo Fisher Scientific (Life Technologies) SelectScreen
Assay: SelectScreen Z'LYTE
Format: biochemical
Protocol: The in vitro kinase selectivity of NU5455 was determined using the SelectScreen Broad Assay Panel (Thermo Fisher Scientific) involving activity and binding assays (Supplemental Table 1). […] Class IA PI3Ks were measured using the p85α subunit.
Kinase [ATP] % Assay Kinase [ATP] % Assay Kinase [ATP] % Assay Kinase [ATP] % Assay
DNA-PK Km app 98.3 Z LATS2 n/a 4.7 L KIT D820E n/a 1.3 L GSK3B (GSK3 beta) Km app -2.5 Z
PIK3C3 (hVPS34) Km app 85.9 A PRKCZ (PKC zeta) Km app 4.7 Z GRK1 n/a 1.3 L BMPR2 n/a -2.5 L
PIK3C2B (PI3K-C2 beta) 10 28.9 A FGFR1 Km app 4.7 Z BRSK2 n/a 1.2 L CDC42 BPB (MRCKB) Km app -2.5 Z
SNF1LK2 Km app 26.6 Z MINK1 Km app 4.6 Z NUAK1 (ARK5) Km app 1.2 A AMPK (A2/B2/G2) n/a -2.6 L
HCK Km app 18.0 Z CSF1R (FMS) Km app 4.3 Z CDK9/cyclin K n/a 1.0 L PRKG1 Km app -2.7 Z
NEK2 Km app 17.8 Z CSNK1G3 (CK1 gamma 3) Km app 4.2 Z NUAK2 n/a 1.0 L KIT T670E n/a -2.8 L
ALK Km app 17.3 Z STK32C (YANK3) n/a 4.2 L CDK2/cyclin O n/a 0.9 L ERBB4 (HER4) Km app -2.8 Z
FGFR3 K650M n/a 16.5 L STK22D (TSSK1) Km app 4.2 Z CAMKK2 (CaMKK beta) n/a 0.9 L PLK4 n/a -2.8 L
SIK3 n/a 16.1 L TAOK3 (JIK) n/a 4.2 L FGFR3 Km app 0.9 Z GRK7 Km app -3.0 Z
LYN A Km app 15.2 Z RPS6KA4 (MSK2) Km app 4.2 Z ULK2 n/a 0.9 L MAPKAPK2 Km app -3.1 Z
BMPR1B (ALK6) n/a 14.5 L PTK2B (FAK2) Km app 4.2 Z KIT D816V n/a 0.9 L FGFR4 Km app -3.1 Z
INSRR (IRR) Km app 14.1 Z CLK2 Km app 4.1 Z CAMK1 (CaMK1) 10 0.8 A CASK n/a -3.1 L
PLK2 Km app 14.1 Z STK24 (MST3) Km app 4.1 Z PTK6 (Brk) Km app 0.7 Z GRK5 Km app -3.2 Z
PRKACA (PKA) Km app 14.0 Z CAMK1D (CaMKI delta) Km app 4.1 Z CAMK2B (CaMKII beta) Km app 0.7 Z EGFR (ErbB1) T790M Km app -3.3 Z
EIF2AK2 (PKR) n/a 13.3 L INSR Km app 4.1 Z ACVR1 (ALK2) n/a 0.7 L PAK4 Km app -3.3 Z
PRKX Km app 12.5 Z IRAK1 Km app 4.0 A ABL1 H396P n/a 0.6 L DAPK3 (ZIPK) Km app -3.4 Z
FGR Km app 12.1 Z SRC N1 Km app 3.9 Z MERTK (cMER) A708S n/a 0.6 L RET M918T n/a -3.5 L
CLK1 Km app 11.7 Z SRPK2 Km app 3.9 Z MAPKAPK5 (PRAK) Km app 0.6 Z PRKCQ (PKC theta) Km app -3.7 Z
MARK3 Km app 11.4 Z RPS6KA6 (RSK4) Km app 3.8 Z AKT1 (PKB alpha) Km app 0.5 Z CAMKK1 (CAMKKA) n/a -3.8 L
PDGFRB (PDGFR beta) Km app 11.0 Z GRK6 Km app 3.7 Z NTRK3 (TRKC) Km app 0.4 Z FLT3 D835Y Km app -3.9 Z
PRKCN (PKD3) Km app 10.7 Z PKN1 (PRK1) Km app 3.6 Z ZAP70 Km app 0.3 Z ROCK2 Km app -4.1 Z
STK16 (PKL12) n/a 10.5 L MAP3K8 (COT) 100 3.5 Z CSNK1A1 (CK1 alpha 1) Km app 0.3 Z CHUK (IKK alpha) Km app -4.2 A
FES (FPS) Km app 10.4 Z FLT4 (VEGFR3) Km app 3.5 Z MYLK (MLCK) n/a 0.2 L AXL Km app -4.2 Z
ABL1 Km app 10.4 Z GRK4 Km app 3.5 Z MKNK2 (MNK2) n/a 0.2 L PIM2 Km app -4.3 Z
MUSK Km app 10.3 Z FRK (PTK5) Km app 3.4 Z AMPK (A1/B1/G3) n/a 0.2 L PAK1 Km app -4.4 Z
MAPK1 (ERK2) Km app 10.1 Z FYN A n/a 3.3 L MAP3K2 (MEKK2) n/a 0.1 L BMPR1A (ALK3) n/a -4.4 L
BRAF 100 9.9 Z CDK1/cyclin A2 n/a 3.3 L CDK8/cyclin C n/a 0.1 L STK4 (MST1) Km app -4.4 Z
IGF1R Km app 9.7 Z KIT V559D T670I n/a 3.1 L MARK2 Km app 0.1 Z PRKCH (PKC eta) Km app -4.6 Z
MAPK14 (p38 alpha) Km app 9.7 Z SPHK2 10 3.1 A ICK n/a 0.0 L SGKL (SGK3) Km app -4.6 Z
LCK Km app 9.6 Z FGFR3 G697C n/a 3.1 L FGFR2 Km app 0.0 Z PI4KB (PI4K beta) Km app -4.7 A
MAPK11 (p38 beta) Km app 9.5 Z RIPK2 n/a 3.1 L AKT2 (PKB beta) Km app 0.0 Z PRKCE (PKC epsilon) Km app -4.9 Z
SRC Km app 9.5 Z PAK6 Km app 3.0 Z EPHB2 Km app -0.1 Z PHKG1 Km app -5.0 Z
CHEK1 (CHK1) Km app 9.3 Z LYN B Km app 3.0 Z TGFBR2 n/a -0.1 L PDGFRA D842V Km app -5.0 Z
CAMK2D (CaMKII delta) Km app 9.3 Z DAPK2 n/a 2.9 L TEK (Tie2) Km app -0.1 Z PRKG2 (PKG2) Km app -5.1 Z
PLK1 Km app 9.2 Z EPHA4 Km app 2.9 Z AURKA (Aurora A) Km app -0.1 Z TYRO3 (RSE) Km app -5.1 Z
RET Y791F Km app 9.2 Z PIK3CG (p110 gamma) Km app 2.9 A KIT D816H n/a -0.2 L TAOK2 (TAO1) Km app -5.1 Z
FLT3 Km app 9.1 Z HIPK1 (Myak) Km app 2.8 Z KIT N822K n/a -0.2 L EPHB4 Km app -5.3 Z
MAPK10 (JNK3) 100 9.0 Z ADRBK2 (GRK3) Km app 2.8 Z PRKACG (PRKAC gamma) n/a -0.2 L AURKC (Aurora C) Km app -5.4 Z
CSNK2A2 (CK2 alpha 2) Km app 8.7 Z STK17B (DRAK2) n/a 2.7 L TEK (TIE2) Y1108F n/a -0.3 L JAK1 Km app -5.7 Z […]

T1 sequence (Q96BR1 whole entry): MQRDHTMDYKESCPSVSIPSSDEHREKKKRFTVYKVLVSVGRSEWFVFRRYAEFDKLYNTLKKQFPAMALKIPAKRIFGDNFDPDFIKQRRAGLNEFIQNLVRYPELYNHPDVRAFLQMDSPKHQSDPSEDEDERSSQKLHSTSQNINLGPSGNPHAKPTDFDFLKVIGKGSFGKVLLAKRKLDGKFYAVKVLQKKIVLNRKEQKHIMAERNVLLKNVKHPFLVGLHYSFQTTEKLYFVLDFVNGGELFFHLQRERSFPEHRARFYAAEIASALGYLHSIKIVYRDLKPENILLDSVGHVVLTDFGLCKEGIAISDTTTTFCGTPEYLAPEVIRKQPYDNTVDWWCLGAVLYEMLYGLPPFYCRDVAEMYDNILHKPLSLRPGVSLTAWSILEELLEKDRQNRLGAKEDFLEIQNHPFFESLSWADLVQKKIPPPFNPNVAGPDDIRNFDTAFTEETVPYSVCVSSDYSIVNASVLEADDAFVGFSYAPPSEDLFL

`CN(C(=O)CN1CCOCC1)c1ccc2sc3c(-c4cccc5c(=O)cc(N6CC7CCC(C6)O7)oc45)cccc3c2c1` [NU5455] was tested, and the inhibition at 1 µM was -4.6%.
